Two compounds from US20060223775A1 (priority 1992, published 2006) can be followed below.

What all share (format): cell-based
The test system of experiment [1] is transformed (NBK) human fibroblast. Description: Cell killing mediated by MVM-TK virions and gancyclovir (WST-1 colorimetric assay). As to conditions: WST-1, daily. How it is done:
(§1) The efficiency and selectivity of cells killing mediated by the MVM/P387-TK virions and gancyclovir were assessed by infecting normal (NHF) and transformed (NBK) human fibroblast. The results of said experiments are described in the enclosed FIGS. 8 and 9.
(§2) Cell growth was daily monitored with the WST-1 colorimetric assay (Boehringer).
(§3) In FIG. 9, NHF and NBK cells were infected at different MoI and the cell survival was assessed after 4 days with the WST-1 assay in presence or absence of GCV.

The subject of experiment [2] is normal (NHF) human fibroblast. The description is as above. Conditions: mock or MVM-TK infected, WST-1, daily. How it is done: as §1, §2, §3
The subject of experiment [3] is luciferase gene under the control of a promoter activated by tTA. Description: Luciferase expression in clone NBK.MZ.tTA-2 electroporated with pUHC13-1. How it is done:
Selected stably transfected NBK324 clones (G418 selection) were assayed for luciferase expression upon transient transfection (in absence or presence of tetracycline) with the plasmid pUHC13-1 (Gossen and Bujard). The plasmid pUHC13-1 is an expression vector containing the luciferase gene under the control of a promoter activated by tTA.
The best clone selected, NBK.MZ.tTA-2, upon electroporation at 230 volts and 1050 μF with 4 μg of pUHC13-1 is charaterized by the following results (expressed in relative luciferase unit rlu/μg protein): […]

Regarding `Nc1nc(O)c2ncn(COC(CO)CO)c2n1` [GCV, gancyclovir], the “GCV concentration at which growth was severely suppressed” value in experiment [1] (MVM-TK infected NBK) is no less than 3 µg/mL. For the same compound, the “cell growth at different GCV concentrations” value in experiment [1] (mock infected NBK) and in experiment [2] was “not affected” throughout.
Consider `CN(C)[C@@H]1C(O)=C(C(N)=O)C(=O)[C@@]2(O)C(O)=C3C(=O)c4c(O)cccc4[C@@](C)(O)[C@H]3C[C@@H]12` [tetracycline], for which the “luciferase expression (relative luciferase unit)” value stood at 19212 rlu/μg protein in experiment [3] (tetracycline 10 ng ml, 4 μg pUHC13-1, 230 volts, 1050 μF); 2268 rlu/μg protein in experiment [3] (tetracycline 100 ng/ml, 4 μg pUHC13-1); 1568 rlu/μg protein in experiment [3] (tetracycline 1 μg/ml, 4 μg pUHC13-1).
